The record followed here is patent EP0640594A1, “Hydantoin derivative as metalloprotease inhibitor” (FUJIREBIO INC., priority 1993, dated 1995).

The structures appear in SMILES notation.

This assay addresses T1, NEP (Rattus norvegicus, UniProt P07861).
T1 construct: The fractions with the NEP activity were collected, and was used as the enzyme source for the test; from tissue; host or cells: kidneys of male SD rats
T1 sequence (P07861 1-750): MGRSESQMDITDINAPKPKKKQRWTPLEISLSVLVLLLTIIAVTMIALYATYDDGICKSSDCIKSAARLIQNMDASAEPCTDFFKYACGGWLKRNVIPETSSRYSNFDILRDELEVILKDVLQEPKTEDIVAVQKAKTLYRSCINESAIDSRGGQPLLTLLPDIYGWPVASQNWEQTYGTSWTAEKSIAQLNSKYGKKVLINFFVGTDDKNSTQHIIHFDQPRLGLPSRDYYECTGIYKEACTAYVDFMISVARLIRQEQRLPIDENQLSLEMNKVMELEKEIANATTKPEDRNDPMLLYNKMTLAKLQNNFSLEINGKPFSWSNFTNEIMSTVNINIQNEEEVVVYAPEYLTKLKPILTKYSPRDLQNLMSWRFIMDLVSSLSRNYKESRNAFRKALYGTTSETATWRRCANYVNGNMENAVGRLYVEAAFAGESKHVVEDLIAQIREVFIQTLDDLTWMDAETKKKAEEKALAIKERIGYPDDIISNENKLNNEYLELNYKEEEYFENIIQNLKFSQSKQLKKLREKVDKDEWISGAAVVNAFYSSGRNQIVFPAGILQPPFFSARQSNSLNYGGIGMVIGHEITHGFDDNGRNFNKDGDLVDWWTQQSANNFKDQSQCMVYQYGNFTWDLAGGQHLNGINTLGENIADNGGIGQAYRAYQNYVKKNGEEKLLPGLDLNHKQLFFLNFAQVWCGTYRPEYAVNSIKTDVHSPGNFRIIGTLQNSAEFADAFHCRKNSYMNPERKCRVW
The experiment in a line: in vitro inhibitory activity on NEP. The assay is classed as biochemical. The following applies: NEP from kidneys of male SD rats; 0.4 mM glutaryl-Ala-Ala-Phe-4-methoxy-β-naphthylamide, pH 7.4, 37°C, 1 hour. On the procedure:
NEP was prepared as follows in accordance with the process as described in Peptide, 9, 173 (1988). Kidneys of male SD rats were homogenized with 10 times by volume of a tris/HCl buffer solution (pH 7.0) containing mannitol and magnesium chloride. The homogenate was centrifuged (700 × g) to give a supernatant liquid. To the supernatant liquid was added n-octyl-β-D-glucoside in an amount to give a final concentration of 1 %, followed by stirring at 4°C for 1 hour, thereby solubilizing the enzyme. The solution was dialyzed against 5 mM HEPES/0.1% Triton (pH 7.4). The inner liquid was applied to a DE-52 column (2.5 cm i.d. × 15 cm) equilibrated with 5 mM HEPES/0.1% Triton (pH 7.4). The column was eluted with 500 ml of a NaCl solution having a linear concentration gradient of 0-300 mM. The fractions with the NEP activity were collected, and was used as the enzyme source for the test.
The inhibitory activity on NEP was measured according to the method described in Biochemistry, 20, 4942 (1981). That is, 250 µl of a 50 mM tris/HCl buffer solution (pH 7.4) containing 0.4 mM of glutaryl-Ala-Ala-Phe-4-methoxy-β-naphthylamide, 0.25 unit/ml of leucine aminopeptidase, a predetermined amount of the sample compound and NEP was prepared and the reaction was carried out at 37°C for 1 hour. The amount of 4-methoxy-β-naphthylamide produced by the NEP activity was measured to determine the inhibitory activity.

Take `O=C1CN(C2CCCC2)C(=O)N1C(CS)Cc1ccccc1` (centres unmarked) [Example 1, 1-cyclopentyl-3-(1-mercapto-3-phenyl-2-propyl)hydantoin]: half-maximal inhibition (IC50) required 450 nM.

In turn, `O=C1CN(C2CCCCC2)C(=O)N1C(CS)Cc1ccccc1` (centres unmarked) [Example 3, 1-cyclohexyl-3-(1-mercapto-3-phenyl-2-propyl)hydantoin] displayed an IC50 of 250 nM.

In turn, `O=C(O)CC1C(=O)N(C(CS)Cc2ccccc2)C(=O)N1C1CCCC1` (centres unmarked) [Example 18, 5-(carboxymethyl)-1-cyclopentyl-3-(1-mercapto-3-phenyl-2-propyl)hydantoin] showed an IC50 of 250 nM.

As to `O=C(O)CCC1C(=O)N(C(CS)Cc2ccccc2)C(=O)N1C1CCCC1` (centres unmarked) [Example 19, 5-(2-carboxyethyl)-1-cyclopentyl-3-(1-mercapto-3-phenyl-2-propyl)hydantoin], the IC50 was found to be 160 nM.

Compound `CC(C)[C@@H](C(=O)O)N1CC(=O)N(C(CS)Cc2ccccc2)C1=O` (stereo partly drawn) [Example 21, 1-[(1S)-1-carboxy-2-methylpropyl)-3-(1-mercapto-3-phenyl-2-propyl)hydantoin] yielded an IC50 of 52 nM.

`C[C@@H](C(=O)O)N1CC(=O)N(C(CS)Cc2ccccc2)C1=O` (stereo partly drawn) [Example 26, 1-[(1S)-1-carboxyethyl]-3-(1-mercapto-3-phenyl-2-propyl)hydantoin] gave an IC50 of 170 nM.

The compound `O=C(O)[C@H](Cc1ccccc1)N1CC(=O)N(C(CS)Cc2ccccc2)C1=O` (stereo partly drawn) [Example 27, 1-[(1S)-1-carboxy-2-phenylethyl]-3-(1-mercapto-3-phenyl-2-propyl)hydantoin] displayed an IC50 of 260 nM.

The compound `CC(C)C[C@@H](C(=O)O)N1CC(=O)N(C(CS)Cc2ccccc2)C1=O` (stereo partly drawn) [Example 28, 1-[(1S)-1-carboxy-3-methylbutyl]-3-(1-mercapto-3-phenyl-2-propyl)hydantoin] had an IC50 of 220 nM.

For the compound `CCC(C)[C@@H](C(=O)O)N1CC(=O)N(C(CS)Cc2ccccc2)C1=O` (stereo partly drawn) [Example 29, 1-[(1S)-1-carboxy-2-methylbutyl]-3-(1-mercapto-3-phenyl-2-propyl)hydantoin], 56 nM corresponded to half-maximal inhibition (IC50).

For the compound `O=C1CN(N2CCCCC2)C(=O)N1C(CS)Cc1ccccc1` (centres unmarked) [Example 45, 3-(1-mercapto-3-phenyl-2-propyl)-1-piperidinylhydantoin], the IC50 turned out to be 59 nM.

Regarding `O=C1CN(N2CCOCC2)C(=O)N1C(CS)Cc1ccccc1` (centres unmarked) [Example 46, 3-(1-mercapto-3-phenyl-2-propyl)-1-(4-morpholinyl)hydantoin], the IC50 was 110 nM.

Take `O=C(O)CN1C(=O)N(C(CS)Cc2ccccc2)C(=O)C1C(c1ccccc1)c1ccccc1` (centres unmarked) [Example 53, 1-(carboxymethyl)-5-(diphenylmethyl)-3-(1-mercapto-3-phenyl-2-propyl)hydantoin]: the IC50 is 230 nM.

For the compound `O=C(O)CN1C(=O)N(C(CS)Cc2ccccc2)C(=O)C1c1ccc(O)cc1` (centres unmarked) [Example 55, 1-(carboxymethyl)-5-(4-hydroxyphenyl)-3-(1-mercapto-3-phenyl-2-propyl)hydantoin], half-maximal inhibition (IC50) was put at 90 nM.

The compound `COc1ccc(C2C(=O)N(C(CS)Cc3ccccc3)C(=O)N2CC(=O)O)cc1` (centres unmarked) [Example 56, 1-(carboxymethyl)-3-(1-mercapto-3-phenyl-2-propyl)-5-(4-methoxyphenyl)hydantoin] gave an IC50 of 6.5 nM.

Regarding `CC(C)Oc1ccc(C2C(=O)N(C(CS)Cc3ccccc3)C(=O)N2CC(=O)O)cc1` (centres unmarked) [Example 58, 1-(carboxymethyl)-3-(1-mercapto-3-phenyl-2-propyl)-5-[4-(2-propyloxy)phenyl]hydantoin], the IC50 was 28 nM.

`O=C(O)CN1C(=O)N(C(CS)Cc2ccccc2)C(=O)C1C1c2ccccc2-c2ccccc21` (centres unmarked) [Example 60, 1-(carboxymethyl)-5-(9-fluorenyl)-3-(1-mercapto-3-phenyl-2-propyl)hydantoin] came in with an IC50 of 180 nM.

In the case of `CC(C)CC(CS)N1C(=O)CN(CC(=O)O)C1=O` (centres unmarked) [Example 66, 1-(carboxymethyl)-3-(1-mercapto-4-methyl-2-pentyl)-hydantoin], the IC50 was determined as 700 nM.
